Our source for the GI50 and TGI values is PubChem BioAssay (NCI).

Holding throughout (experiment): inhibition of tumour cell growth, NCI panel, 48 h
In assay [1] the test system is NCI/ADR-RES ovarian.
For assay [2], the system named is NCI-H522 lung.
Assay [3] concerns UO-31 renal.
Assay [4] relates to OVCAR-4 ovarian.
In assay [5] the test system is MALME-3M melanoma.
Assay [6] concerns M14 melanoma.
For assay [7], the system named is OVCAR-8 ovarian.
The subject of assay [8] is HT29 colon.
Assay [9] deals with K-562 leukemia.
In assay [10] the test system is SR leukemia.

Several values for one entry are separate records, joined by “and”; a condition that tells them apart may be missing. Equal values may be shown once.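 96-well plates; 48 h exposure; 5 concentrations. Endpoints by linear interpolation between flanking doses. Not reached: highest tested concentration assigned. GI50 = concentration required for 50% inhibition of growth. TGI: total growth inhibition.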 Some results are limits rather than exact numbers.

For `CNC(=O)c1cc2c(Oc3ccc(NC(=S)NC(=O)Cc4ccccc4)cc3F)ccnc2cc1OC`, the GI50 in assay [1] was 7.01 µM; in assay [2], 10 µM; in assay [3], 2.56 µM; in assay [4] it was 5.44 µM; in assay [5] it was 8.85 µM; in assay [6] it was more than 24.3 µM. Also, the GI50 in [7] is more than 100 µM; in assay [8] it was 3.16 µM; in assay [9], 0.502 µM; in assay [10], 5.78 µM. Further, the TGI in assay [1], in assay [2], in assay [3], in assay [4], in assay [5] and in assay [6] was more than 100 µM throughout. Moreover, the TGI in assay [7], in assay [8], in [9] and in [10] was more than 100 µM each time.

Take `CC1(C)N=C(N)N=C(N)N1c1ccc(Cl)c(Cl)c1`: the GI50 in assay [1] is 43 µM; in assay [2] it was 6.67 µM; in assay [3] it was 13.5 µM; in assay [4], 10.9 µM; in assay [5] it was 32 µM; in [6], 0.441 µM. Moreover, the GI50 was 0.202 µM in assay [7], 0.1 µM in assay [8], 0.0636 µM in assay [9] and 31.3 µM in assay [10]. For the same molecule, the TGI in assay [1], in [2], in assay [3], in assay [4], in assay [5] and in [6] was more than 100 µM each time. Moreover, the TGI in assay [7], in [8], in assay [9] and in assay [10] was more than 100 µM in each case.

Regarding `Cc1cc2c(=O)[nH]c(N)nc2nc1C`, the TGI in assay [1], in assay [2], in [3], in [4], in assay [5] and in assay [6] was more than 100 µM each time. The TGI in assay [7], in assay [8], in assay [9] and in [10] was more than 100 µM in each case.

In the case of `N=C(N)SCc1ccc([N+](=O)[O-])cc1[N+](=O)[O-]`, the GI50 was 23 µM in assay [1]; 1.48 µM in assay [2]; 3.21 µM in assay [3]; 6.01 µM in [4]; 3.48 µM in [5]; 12.8 µM in assay [6]. The GI50 is 14.3 µM in assay [7], 5.44 µM in assay [8], 3.42 µM in assay [9] and 3.09 µM in [10]. Moreover, the TGI amounted to 89 µM in assay [1]; 3.12 µM in [2]; 14.3 µM in assay [3]; 18.7 µM in assay [4]; 18.7 µM in assay [5]; 29.4 µM in assay [6]. Also, the TGI was determined as 75.7 µM in [7], 18.9 µM in assay [8], 21 µM in assay [9] and 11.4 µM in assay [10].

For the molecule `FC(F)(F)c1[nH]ncc1-c1nc2ccc3[nH]ncc3c2c2c1CCCC2`, the GI50 in assay [1] is 2.49 µM; in [2] it was 1.24 µM; in assay [3] it was 1.3 µM; in assay [4], 2.82 µM; in assay [5], 0.927 µM; in assay [6] it was 1.09 µM. The GI50 in assay [7] was 2.63 µM; in assay [8] it was 2.11 µM; in assay [9], 2.71 µM; in assay [10], 0.356 µM. For the same molecule, the TGI in assay [1] was 13.9 µM; in assay [2], 4.77 µM; in assay [3], 5 µM; in assay [4] it was 11.4 µM; in assay [5], 3.82 µM; in assay [6], 2.9 µM. The TGI in [7] was 11.9 µM; in assay [8] it was 6.76 µM; in [9], 60.5 µM; in [10] it was 2.73 µM.

With `O=S(=O)(NCCO)c1cc[c]([Sb](=[O])([OH])[OH])cc1`, the GI50 in assay [1], in [2], in [3], in assay [4], in assay [5] and in [6] was more than 100 µM in each case. Besides, the GI50 in assay [7], in [8], in assay [9] and in assay [10] was more than 100 µM each time. Moreover, the TGI in [1], in [2], in [3], in [4], in assay [5] and in assay [6] was more than 100 µM throughout. Besides, the TGI in assay [7], in [8], in assay [9] and in assay [10] was more than 100 µM each time.

On to `N#C/C(=C\c1cccc2cnccc12)N1N=NC2C=CC=CC21` (stereo not drawn), for which the GI50 in assay [1] is 3.53 µM; in [2], 2 µM; in assay [3], 0.602 µM; in assay [4] it was 2.92 µM; in [5], 3.24 µM; in assay [6], 7.71 µM. In addition, the GI50 in assay [7] was 3.32 µM; in assay [8], 3.5 µM; in [9], 2.85 µM; in assay [10], 2.53 µM. In addition, the TGI in assay [1], in assay [2], in [3], in assay [4], in assay [5] and in assay [6] was more than 100 µM throughout. The TGI in assay [7], in assay [8], in [9] and in [10] was more than 100 µM throughout.

Take `Oc1c(CNCCNCc2cc(Cl)cc(Cc3ccccc3)c2O)cc(Cl)cc1Cc1ccccc1`: the GI50 in assay [1] is 0.364 µM; in assay [2], 0.546 µM; in [3], 0.128 µM; in [4] it was 0.0806 µM; in assay [5], 0.6 µM; in assay [6], 0.316 µM. The GI50 is 0.474 µM in assay [7], 0.668 µM in assay [8], 0.391 µM in [9] and 0.376 µM in assay [10]. For the same molecule, the TGI in [1] was 18.3 µM; in assay [2], 25.6 µM; in assay [3] it was 1.34 µM; in [4], more than 100 µM; in assay [5] it was 7.6 µM; in [6] it was 10.7 µM. Further, the TGI was more than 100 µM in [7], 20 µM in [8], 27.2 µM in [9] and more than 100 µM in [10].

Take `CCOC(=O)c1nc2cc(C(F)(F)F)ccc2[n+]([O-])c1C`: the GI50 in assay [1], in [2], in assay [3], in assay [4], in [5] and in assay [6] was more than 100 µM throughout. For the same molecule, the GI50 in assay [7], in [8], in assay [9] and in assay [10] was more than 100 µM in each case. The TGI in assay [1], in assay [2], in assay [3], in assay [4], in assay [5] and in [6] was more than 100 µM each time. The TGI in assay [7], in assay [8], in assay [9] and in assay [10] was more than 100 µM in each case.

With `CN(C)c1ccc(/C=N/NC(=O)c2cccc3ccccc23)c(Cl)c1`, the GI50 is 1.02 µM in assay [1]; 1.12 µM in assay [2]; 14.6 µM in assay [3]; 11.6 µM in assay [4]; 1.29 µM in [5]; 0.763 µM in assay [6]. Also, the GI50 in assay [7] was 3.29 µM; in assay [8] it was 0.503 µM; in assay [9] it was 0.398 µM; in assay [10] it was 0.36 µM. Besides, the TGI is more than 100 µM in assay [1]; 39.4 µM in [2]; more than 100 µM in assay [3]; 74.2 µM in assay [4]; 69.2 µM in assay [5]; more than 100 µM in assay [6]. In addition, the TGI is more than 100 µM in [7], 15.8 µM in assay [8], more than 100 µM in assay [9] and more than 100 µM in [10].

Regarding `COc1cc2c(cc1O)C(c1cc(O)c(O)c(OC)c1)C(O)(C(=O)O)C(CO)C2O` (stereo not drawn), the TGI in assay [1], in [2], in [3], in [4], in assay [5] and in assay [6] was more than 100 µM each time. Also, the TGI in [7], in assay [8], in [9] and in [10] was more than 100 µM each time.

As to `CNCCCn1c2c(c3ccc(F)cc3c1=O)C(=O)c1cc(OC)cnc1-2`, the GI50 in assay [1] is 0.431 µM; in assay [2], 0.0569 µM; in assay [3], 0.13 µM; in assay [4], 0.421 µM; in [5] it was 0.318 µM; in assay [6] it was 0.308 µM. Further, the GI50 in assay [7] is 0.193 µM; in assay [8], 0.145 µM; in assay [9] it was 0.172 µM; in [10] it was 0.12 µM. Also, the TGI in assay [1] is 9.51 µM; in assay [2], 1.08 µM; in assay [3], 0.809 µM; in [4], 10.5 µM; in assay [5] it was 1.55 µM; in assay [6], 1.63 µM. For the same molecule, the TGI came out at 1.12 µM in assay [7], 0.624 µM in [8], 1.92 µM in [9] and 1.13 µM in assay [10].

As for `CN1CCN(c2ccc(C(=O)Nc3cccc(C#Cc4cccc5[nH]nc(N)c45)c3)cc2C(F)(F)F)CC1`, the GI50 in assay [1] was 0.99 µM; in [2], 0.566 µM; in assay [3], 0.713 µM; in [4], 0.962 µM; in [5] it was 0.651 µM; in assay [6], 0.636 µM. In addition, the GI50 in [7] was 1.09 µM; in [8], 0.715 µM; in assay [9], 0.0235 µM; in assay [10], 1.06 µM. The TGI in [1] was found to be 2.82 µM; in [2], 1.3 µM; in [3], 1.8 µM; in [4], 4.51 µM; in [5], 1.62 µM; in assay [6], 1.34 µM. Also, the TGI stood at 4.77 µM in [7], 1.81 µM in assay [8], 0.717 µM in [9] and 5.34 µM in assay [10].

For the molecule `Nc1nc(-c2cc(-c3cccc4ccccc34)nc(N)n2)cc(-c2cccc3ccccc23)n1`, the TGI in [1], in assay [2], in [3], in assay [4], in assay [5] and in assay [6] was more than 100 µM throughout. Further, the TGI in assay [7], in assay [8], in assay [9] and in [10] was more than 100 µM each time.

With `Clc1ccc(N2CCC(N3CCCC3)CC2)cc1-c1nc2ccccc2[nH]1`, the GI50 in assay [1] was 29.4 µM; in assay [2], 19.1 µM; in assay [3], 16.7 µM; in [4], 27.1 µM; in assay [5] it was 17.4 µM; in [6], 16.7 µM. Further, the GI50 is 22.5 µM in assay [7], 15.1 µM in assay [8], 17 µM in assay [9] and 20.1 µM in assay [10]. The TGI in assay [1] is more than 100 µM; in assay [2] it was 38.7 µM; in assay [3], 34 µM; in assay [4], more than 91.4 µM; in assay [5] it was 33.6 µM; in assay [6], 31.8 µM. Further, the TGI in assay [7] was 60.6 µM; in assay [8], 35.8 µM; in assay [9], 44.5 µM; in [10], 58.7 µM.

Take `C[C@@](O)(/C=C/[C@H]1CC=CC(=O)O1)[C@@H](C[C@@H](O)\C=C/C=C\C=C\CO)OP(=O)(O)O`: the TGI was 143 µM in assay [1]; 66.1 µM and 60.1 µM in assay [2]; 19.5 µM and 22 µM in [3]; 25.5 µM in [4]; 16 µM and 14.3 µM in assay [5]; 2.69 µM in [6]. In addition, the TGI was 90.7 µM and 86.5 µM in [7]; 6.33 µM in assay [8]; 363 µM and 84.6 µM in [9]; 41.6 µM in [10]. The GI50 is 9.39 µM in assay [3], 6.94 µM in assay [5], 12.3 µM in assay [7] and 1.39 µM in assay [9].

Regarding `C#C/C=C/CC1OC(C(Br)CC)CC(Br)C2CC1O2` (stereo not drawn), the TGI was more than 100 µM in [1]; 21.1 µM in [2]; more than 100 µM in [4]; 25.7 µM in assay [5]; more than 100 µM in [6]; more than 100 µM in assay [7]. The TGI in assay [8], in [9] and in assay [10] was more than 100 µM in each case.
